Reference: patent publication US12077503B2, “Substituted cyclic amides and their use as herbicides” (FMC CORPORATION, priority 2015, dated 2024)
Where two headings read alike, the source gives them in different places.

Assays:
Format in all cases: in vivo
[1] = tested on: blackgrass (Alopecurus myosuroides); experiment: Test A postemergence; conditions: Alopecurus myosuroides, post-emergence, 240 h; for pest or weed control at 125 g/ha: 125 g ai/ha
Procedure, shortened: (§1)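 Seeded soil received test chemicals as a preemergence directed spray, and seedlings at one to two leaves, 2–10 cm tall, received them postemergence, in a non-phytotoxic, surfactant-containing solvent mixture. Pots were held in a greenhouse for approximately 10 d, then rated for injury from 0, no effect, to 100, complete control.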

[2] = tested on: Kochia (Kochia scoparia); experiment: Test A postemergence; conditions: Bassia scoparia, post-emergence, 240 h; for pest or weed control at 125 g/ha: 125 g ai/ha
Procedure, shortened: as §1

[3] = tested on: giant foxtail (Setaria faberii); experiment: Test A postemergence; conditions: Setaria faberi, post-emergence, 240 h; for pest or weed control at 125 g/ha: 125 g ai/ha
Procedure, shortened: as §1

[4] = tested on: ragweed (common ragweed, Ambrosia elatior); experiment: Test A postemergence; conditions: Ambrosia artemisiifolia, post-emergence, 240 h; for pest or weed control at 125 g/ha: 125 g ai/ha
Procedure, shortened: as §1

[5] = tested on: wheat (Triticum aestivum); experiment: Test A postemergence; conditions: Triticum aestivum, post-emergence, 240 h; for plant injury at 125 g/ha: 125 g ai/ha
Procedure, shortened: as §1

[6] = tested on: Galium (catchweed bedstraw, Galium aparine); experiment: Test A postemergence; conditions: Galium, post-emergence, 240 h; for pest or weed control at 125 g/ha: 125 g ai/ha
Procedure, shortened: as §1

[7] = tested on: corn (Zea mays); experiment: Test A postemergence; conditions: Zea mays, post-emergence, 240 h; for plant injury at 125 g/ha: postemergence, visual injury rating after approximately 10 d, read-out: Corn plant response rating (0 to 100 scale, 0 no effect, 100 complete control)
Procedure, shortened: as §1

[8] = tested on: ryegrass, Italian (Italian ryegrass, Lolium multiflorum); experiment: Test A postemergence; conditions: Lolium multiflorum, post-emergence, 240 h; for pest or weed control at 125 g/ha: 125 g ai/ha
Procedure, shortened: as §1

[9] = tested on: pigweed (Amaranthus retroflexus); experiment: Test A postemergence; conditions: Amaranthus retroflexus, post-emergence, 240 h; for pest or weed control at 125 g/ha: 125 g ai/ha
Procedure, shortened: as §1

[10] = tested on: barnyardgrass (Echinochloa crus-galli); experiment: Test A postemergence; conditions: Echinochloa crus-galli, post-emergence, 240 h; for pest or weed control at 125 g/ha: 125 g ai/ha
Procedure, shortened: as §1

[11] = tested on: ducksalad (Heteranthera limosa); experiment: Test B flooded paddy test; conditions: Heteranthera limosa, Flood, 250 g ai/ha; scale of 0 to 100 where 0 is no effect and 100 is complete control; read-out: Ducksalad plant response rating
Procedure, shortened: (§2)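 2-leaf plants; pots flooded 3 cm over soil; cpd added to paddy water; depth held; greenhouse 13–15 d; visual rating vs controls, 0 = no effect, 100 = complete control.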

[12] = tested on: rice (Oryra sativa); experiment: Test B flooded paddy test; conditions: Oryza sativa, Flood, 250 g ai/ha; scale of 0 to 100 where 0 is no effect and 100 is complete control; read-out: Rice plant response rating
Procedure, shortened: as §2

[13] = tested on: sedge, umbrella (small-flower umbrella sedge, Cyperus difformis); experiment: Test B flooded paddy test; conditions: Cyperus difformis, Flood, 250 g ai/ha; scale of 0 to 100 where 0 is no effect and 100 is complete control; read-out: Sedge, Umbrella plant response rating
Procedure, shortened: as §2

[14] = tested on: barnyardgrass (Echinochloa crus-galli); experiment: Test B flooded paddy test; conditions: Echinochloa crus-galli, Flood, 250 g ai/ha; scale of 0 to 100 where 0 is no effect and 100 is complete control; read-out: Barnyardgrass plant response rating
Procedure, shortened: as §2

[15] = tested on: pigweed (Amaranthus retroflexus); experiment: Test A preemergence; conditions: Amaranthus retroflexus, pre-emergence, 240 h; for pest or weed control at 125 g/ha: 125 g ai/ha; for pest or weed control at 500 g/ha: 500 g ai/ha, visual injury vs untreated controls after approximately 10 d, read-out: Pigweed plant response rating (0 to 100 scale where 0 is no effect and 100 is complete control)
[16] = postemergence, visual injury rating after approximately 10 d, read-out: Blackgrass plant response rating (0 to 100 scale, 0 no effect, 100 complete control)
[17] = postemergence, visual injury rating after approximately 10 d, read-out: Kochia plant response rating (0 to 100 scale, 0 no effect, 100 complete control)
[18] = postemergence, visual injury rating after approximately 10 d, read-out: Foxtail, Giant plant response rating (0 to 100 scale, 0 no effect, 100 complete control)
[19] = postemergence, visual injury rating after approximately 10 d, read-out: Ragweed plant response rating (0 to 100 scale, 0 no effect, 100 complete control)
[20] = postemergence, visual injury rating after approximately 10 d, read-out: Wheat plant response rating (0 to 100 scale, 0 no effect, 100 complete control)
[21] = postemergence, visual injury rating after approximately 10 d, read-out: Galium plant response rating (0 to 100 scale, 0 no effect, 100 complete control)
[22] = postemergence, visual injury rating after approximately 10 d, read-out: Ryegrass, Italian plant response rating (0 to 100 scale, 0 no effect, 100 complete control)
[23] = postemergence, visual injury rating after approximately 10 d, read-out: Pigweed plant response rating (0 to 100 scale, 0 no effect, 100 complete control)
[24] = postemergence, visual injury rating after approximately 10 d, read-out: Barnyardgrass plant response rating (0 to 100 scale, 0 no effect, 100 complete control)
[25] = preemergence, 0 to 100 scale where 0 is no effect and 100 is complete control, read-out: Pigweed plant response rating

CCOc1cc([C@H]2CN(C)C(=O)[C@@H]2C(=O)Nc2cccc(F)c2F)cc(C(F)(F)F)c1 [Compound 971]
pest or weed control at 125 g/ha ([1]; Postemergence, visual injury after approximately 10 d, 0 to 100 scale where 0 is no effect and 100 is complete control, read-out: Plant response rating, Blackgrass): 50%
pest or weed control at 31 g/ha ([1]; Postemergence, 31 g ai/ha, visual injury after approx. 10 d, 0 to 100 scale, 0 no effect, 100 complete control, read-out: Plant response rating, Blackgrass): 40%
pest or weed control at 125 g/ha ([2]; Postemergence, visual injury after approximately 10 d, 0 to 100 scale where 0 is no effect and 100 is complete control, read-out: Plant response rating, Kochia): 40%
pest or weed control at 31 g/ha ([2]; Postemergence, 31 g ai/ha, visual injury after approx. 10 d, 0 to 100 scale, 0 no effect, 100 complete control, read-out: Plant response rating, Kochia): 20%
pest or weed control at 125 g/ha ([3]; Postemergence, visual injury after approximately 10 d, 0 to 100 scale where 0 is no effect and 100 is complete control, read-out: Plant response rating, Foxtail, Giant): 80%
pest or weed control at 31 g/ha ([3]; Postemergence, 31 g ai/ha, visual injury after approx. 10 d, 0 to 100 scale, 0 no effect, 100 complete control, read-out: Plant response rating, Foxtail, Giant): 80%
pest or weed control at 125 g/ha ([4]; Postemergence, visual injury after approximately 10 d, 0 to 100 scale where 0 is no effect and 100 is complete control, read-out: Plant response rating, Ragweed): 0%
pest or weed control at 31 g/ha ([4]; Postemergence, 31 g ai/ha, visual injury after approx. 10 d, 0 to 100 scale, 0 no effect, 100 complete control, read-out: Plant response rating, Ragweed): 0%
plant injury at 125 g/ha ([5]; Postemergence, visual injury after approximately 10 d, 0 to 100 scale where 0 is no effect and 100 is complete control, read-out: Plant response rating, Wheat): 50%
plant injury at 31 g/ha ([5]; Postemergence, 31 g ai/ha, visual injury after approx. 10 d, 0 to 100 scale, 0 no effect, 100 complete control, read-out: Plant response rating, Wheat): 30%
pest or weed control at 125 g/ha ([6]; Postemergence, visual injury after approximately 10 d, 0 to 100 scale where 0 is no effect and 100 is complete control, read-out: Plant response rating, Galium): 40%
pest or weed control at 31 g/ha ([6]; Postemergence, 31 g ai/ha, visual injury after approx. 10 d, 0 to 100 scale, 0 no effect, 100 complete control, read-out: Plant response rating, Galium): 20%
Corn plant response rating (crop injury, 0 = no effect, 100 = complete kill) at 125 g/ha ([7]; 125 g ai/ha, Postemergence, visual injury after approximately 10 d, 0 to 100 scale where 0 is no effect and 100 is complete control): 70%
Corn plant response rating (crop injury, 0 = no effect, 100 = complete kill) at 31 g/ha ([7]; Postemergence, 31 g ai/ha, visual injury after approx. 10 d, 0 to 100 scale, 0 no effect, 100 complete control): 70%
pest or weed control at 125 g/ha ([8]; Postemergence, visual injury after approximately 10 d, 0 to 100 scale where 0 is no effect and 100 is complete control, read-out: Plant response rating, Ryegrass, Italian): 50%
pest or weed control at 31 g/ha ([8]; Postemergence, 31 g ai/ha, visual injury after approx. 10 d, 0 to 100 scale, 0 no effect, 100 complete control, read-out: Plant response rating, Ryegrass, Italian): 20%
pest or weed control at 125 g/ha ([9]; Postemergence, visual injury after approximately 10 d, 0 to 100 scale where 0 is no effect and 100 is complete control, read-out: Plant response rating, Pigweed): 50%
pest or weed control at 31 g/ha ([9]; Postemergence, 31 g ai/ha, visual injury after approx. 10 d, 0 to 100 scale, 0 no effect, 100 complete control, read-out: Plant response rating, Pigweed): 20%
pest or weed control at 125 g/ha ([10]; Postemergence, visual injury after approximately 10 d, 0 to 100 scale where 0 is no effect and 100 is complete control, read-out: Plant response rating, Barnyardgrass): 80%
pest or weed control at 31 g/ha ([10]; Postemergence, 31 g ai/ha, visual injury after approx. 10 d, 0 to 100 scale, 0 no effect, 100 complete control, read-out: Plant response rating, Barnyardgrass): 50%
pest or weed control at 250 g/ha [11]: 85%
pest or weed control at 250 g/ha [12]: 45%
pest or weed control at 250 g/ha [13]: 0%
pest or weed control at 250 g/ha [14]: 60%
pest or weed control at 125 g/ha ([15]; Preemergence, visual injury rating after approximately 10 d, read-out: Pigweed plant response rating (0 to 100 scale, 0 is no effect, 100 is complete control)): 20%
pest or weed control at 31 g/ha ([15]; Preemergence, 31 g ai/ha, 0 to 100 scale (0 no effect, 100 complete control), read-out: Plant response rating, Pigweed): 20%

COc1c(F)ccc([C@H]2CN(C)C(=O)[C@@H]2C(=O)Nc2ccc(F)c(F)c2F)c1Cl [Compound 895]
pest or weed control at 125 g/ha [1, 16]: 60%
pest or weed control at 125 g/ha [2, 17]: 70%
pest or weed control at 125 g/ha [3, 18]: 90%
pest or weed control at 125 g/ha [4, 19]: 0%
plant injury at 125 g/ha [5, 20]: 40%
pest or weed control at 125 g/ha [6, 21]: 70%
plant injury at 125 g/ha ([7]; 125 g ai/ha): 80%
pest or weed control at 125 g/ha [8, 22]: 60%
pest or weed control at 125 g/ha [9, 23]: 40%
pest or weed control at 125 g/ha [10, 24]: 90%
pest or weed control at 250 g/ha [11]: 85%
pest or weed control at 250 g/ha [12]: 0%
pest or weed control at 250 g/ha [13]: 0%
pest or weed control at 250 g/ha [14]: 75%
pest or weed control at 125 g/ha [15, 25]: 50%
pest or weed control at 500 g/ha ([15]; Preemergence): 50%

CN1C[C@H](c2cccc(OC(F)(F)C(F)F)c2)[C@@H](C(=O)Nc2ccccc2S(C)(=O)=O)C1=O [Compound 864]
pest or weed control at 125 g/ha [1, 16]: 50%
pest or weed control at 125 g/ha [2, 17]: 0%
pest or weed control at 125 g/ha [3, 18]: 70%
pest or weed control at 125 g/ha [4, 19]: 0%
plant injury at 125 g/ha [5, 20]: 50%
pest or weed control at 125 g/ha [6, 21]: 20%
plant injury at 125 g/ha ([7]; 125 g ai/ha): 60%
pest or weed control at 125 g/ha [8, 22]: 50%
pest or weed control at 125 g/ha [9, 23]: 20%
pest or weed control at 125 g/ha [10, 24]: 90%
pest or weed control at 250 g/ha [11]: 90%
pest or weed control at 250 g/ha [12]: 40%
pest or weed control at 250 g/ha [13]: 50%
pest or weed control at 250 g/ha [14]: 50%
pest or weed control at 125 g/ha [15, 25]: 90%
pest or weed control at 500 g/ha ([15]; Preemergence): 90%
